# Laboratory results taken from ChEMBL document CHEMBL1150000, “Purine 2, 3-acyclonucleosides: Improved synthesis and antiparasitic actimity” (Bioorg Med Chem Lett, 1995).
# Active and inactive are the calls of the source. The calls are words filed in the database; no cut-off is given here.
# Tests used:
# Leishmania donovani = test: In vitro inhibitory activity against Leishmania donovani; Inactive; type: functional, organism-based
# Trypanosoma cruzi = test: In vitro inhibitory activity against growth of Trypanosoma cruzi at a concentration of 30 uM; 20-40%; type: functional; conditions: read-out: GI
# Trypanosoma brucei [1] = test: In vitro inhibitory activity against Trypanosoma brucei; Inactive; type: functional, organism-based
# Trypanosoma brucei [2] = test: In vitro inhibitory activity against Trypanosoma brucei; type: functional, organism-based
SMILES,Activity (Leishmania donovani),inhibition of growth at 30 µM (Trypanosoma cruzi) [%],IC50 (Trypanosoma brucei [1]) [µM],IC50 (Trypanosoma brucei [2]) [µM]
Nc1ncnc2c1ncn2C(CO)OC(CO)CCl (stereo unspecified),inactive,40,–,–
OCC(CO)OC(CO)n1cnc2c(O)ncnc21 (stereo unspecified),inactive,–,≥ 100,–
CCC(CO)OC(CO)n1cnc2c(N)ncnc21 (stereo unspecified),inactive,40,–,–
CC(=O)OCC(CO)OC(COC(C)=O)n1cnc2c(N)ncnc21 (stereo unspecified),inactive,–,–,7
CC(=O)OCCSCC(COC(C)=O)OC(COC(C)=O)n1cnc2c(N)ncnc21 (stereo unspecified),inactive,–,–,5.3
CC(=O)OCC(COC(C)=O)OC(COC(C)=O)n1cnc2c(O)ncnc21 (stereo unspecified),inactive,–,–,5.4
Nc1ncnc2c1ncn2C(CO)OC(CO)CO (stereo unspecified),inactive,–,≥ 100,–
Nc1ncnc2c1ncn2C(CO)OC(CO)CSCCO (stereo unspecified),inactive,–,≥ 100,–
